How the values were obtained:
cells = conditions: Homo sapiens, Hs-578T
Description: Anticancer activity against human Hs 578T cells

HT-29 = experiment: cells; conditions: Homo sapiens
Description: Anticancer activity against human HT-29 cells

NCI-H322M = experiment: cells; conditions: Homo sapiens
Description: Anticancer activity against human NCI-H322M cells

BT-549 = experiment: cells; conditions: Homo sapiens
Description: Anticancer activity against human BT549 cells

UACC-62 = experiment: cells; conditions: Homo sapiens
Description: Anticancer activity against human UACC62 cells

A498 = experiment: cells; conditions: Homo sapiens
Description: Anticancer activity against human A498 cells

OVCAR-5 = experiment: cells; conditions: Homo sapiens
Description: Anticancer activity against human OVCAR5 cells

Nucleic Acid = conditions: Homo sapiens
Description: Binding affinity to human G-quadruplex DNA assessed as change in melting temperature by FRET-melting assay

in vivo = conditions: mouse, cancer cell lines
Description: Toxicity in cancer cells containing hollow fiber implanted mouse

A549 = experiment: cells; conditions: Homo sapiens
Description: Anticancer activity against human A549 cells

NCI-H226 = experiment: cells; conditions: Homo sapiens
Description: Anticancer activity against human NCI-H226 cells

SF-295 = experiment: cells; conditions: Homo sapiens
Description: Anticancer activity against human SF295 cells

SNB-19 = experiment: cells; conditions: Homo sapiens
Description: Anticancer activity against human SNB19 cells

EKVX = experiment: cells; conditions: Homo sapiens
Description: Anticancer activity against human EKVX cells

KM12 = experiment: cells; conditions: Homo sapiens
Description: Anticancer activity against human KM12 cells

OVCAR-8 = experiment: cells; conditions: Homo sapiens
Description: Anticancer activity against human OVCAR8 cells

HCT-15 = experiment: cells; conditions: Homo sapiens
Description: Anticancer activity against human HCT15 cells

RXF 393 = experiment: cells; conditions: Homo sapiens
Description: Anticancer activity against human RXF393 cells

LOX IMVI = experiment: cells; conditions: Homo sapiens
Description: Anticancer activity against human LOXIMVI cells

786-0 = experiment: cells; conditions: Homo sapiens
Description: Anticancer activity against human 786-0 cells

NCI-H522 = experiment: cells; conditions: Homo sapiens
Description: Anticancer activity against human NCI-H522 cells

IGROV-1 = experiment: cells; conditions: Homo sapiens
Description: Anticancer activity against human IGROV1 cells

HOP-62 = experiment: cells; conditions: Homo sapiens
Description: Anticancer activity against human HOP62 cells

MDA-MB-231 = experiment: cells; conditions: Homo sapiens
Description: Anticancer activity against human MDA-MB-231 cells

T47D = experiment: cells; conditions: Homo sapiens
Description: Anticancer activity against human T47D cells

MDA-MB-435 = experiment: cells; conditions: Homo sapiens
Description: Anticancer activity against human MDA-MB-435 cells

UACC-257 = experiment: cells; conditions: Homo sapiens
Description: Anticancer activity against human UACC257 cells

HOP-92 = experiment: cells; conditions: Homo sapiens
Description: Anticancer activity against human HOP92 cells

TK-10 = experiment: cells; conditions: Homo sapiens
Description: Anticancer activity against human TK10 cells

NCI-H23 = experiment: cells; conditions: Homo sapiens
Description: Anticancer activity against human NCI-H23 cells

SNB-75 = experiment: cells; conditions: Homo sapiens
Description: Anticancer activity against human SNB75 cells

HL-60(TB) = experiment: cells; conditions: Homo sapiens
Description: Anticancer activity against human HL-60(TB) cells

K562 = experiment: cells; conditions: Homo sapiens
Description: Anticancer activity against human K562 cells

Vero = experiment: cells; conditions: Chlorocebus sabaeus, 48 h
Description: Cytotoxicity against african green monkey Vero cells after 48 hrs by MTT assay

Compound: C[n+]1c2ccccc2c(NC2CCNCC2)c2[nH]c3ccccc3c21.[Cl-]
- GI50 (cells; read-out: pGI50 (converted)): 0.12 µM
- CC50 (cells; read-out: pLC50 (converted)): 44.7 µM
- TGI (cells; read-out: pTGI): 1.12 µM
- GI50 (HT-29; HT-29, read-out: pGI50 (converted)): 0.209 µM
- CC50 (HT-29; HT-29, read-out: pLC50 (converted)): 70.8 µM
- TGI (HT-29; HT-29, read-out: pTGI): 10.2 µM
- GI50 (NCI-H322M; read-out: pGI50 (converted)): 0.372 µM
- CC50 (NCI-H322M; read-out: pLC50 (converted)): > 100 µM
- TGI (NCI-H322M; read-out: pTGI): 12 µM
- GI50 (BT-549; BT-549, read-out: pGI50 (converted)): 2.75 µM
- CC50 (BT-549; BT-549, read-out: pLC50 (converted)): 57.5 µM
- TGI (BT-549; BT-549, read-out: pTGI): 16.6 µM
- GI50 (UACC-62; UACC-62, read-out: pGI50 (converted)): 0.2 µM
- CC50 (UACC-62; UACC-62, read-out: pLC50 (converted)): 3.63 µM
- TGI (UACC-62; UACC-62, read-out: pTGI): 0.933 µM
- GI50 (A498; A498, read-out: pGI50 (converted)): 1.62 µM
- CC50 (A498; A498, read-out: pLC50 (converted)): 26.3 µM
- TGI (A498; A498, read-out: pTGI): 5.13 µM
- GI50 (OVCAR-5; OVCAR-5, read-out: pGI50 (converted)): 1.66 µM
- CC50 (OVCAR-5; OVCAR-5, read-out: pLC50 (converted)): > 100 µM
- TGI (OVCAR-5; OVCAR-5, read-out: pTGI): 17 µM
- ΔTm (Nucleic Acid): 19.9 °C
- MTD (in vivo): 25 mg/kg
- GI50 (A549; A549, read-out: pGI50 (converted)): 0.0776 µM
- CC50 (A549; A549, read-out: pLC50 (converted)): > 100 µM
- TGI (A549; A549, read-out: pTGI): 13.8 µM
- GI50 (NCI-H226; NCI-H226, read-out: pGI50 (converted)): 0.537 µM
- CC50 (NCI-H226; NCI-H226, read-out: pLC50 (converted)): 28.8 µM
- TGI (NCI-H226; NCI-H226, read-out: pTGI): 3.24 µM
- GI50 (SF-295; SF-295, read-out: pGI50 (converted)): 0.741 µM
- CC50 (SF-295; SF-295, read-out: pLC50 (converted)): 77.6 µM
- TGI (SF-295; SF-295, read-out: pTGI): 10.2 µM
- GI50 (SNB-19; SNB-19, read-out: pGI50 (converted)): 0.275 µM
- CC50 (SNB-19; SNB-19, read-out: pLC50 (converted)): > 100 µM
- TGI (SNB-19; SNB-19, read-out: pTGI): 2.57 µM
- GI50 (EKVX; read-out: pGI50 (converted)): 0.525 µM
- CC50 (EKVX; read-out: pLC50 (converted)): > 100 µM
- TGI (EKVX; read-out: pTGI): 8.32 µM
- GI50 (KM12; KM12, read-out: pGI50 (converted)): 0.708 µM
- CC50 (KM12; KM12, read-out: pLC50 (converted)): > 100 µM
- TGI (KM12; KM12, read-out: pTGI): 10 µM
- GI50 (OVCAR-8; OVCAR-8, read-out: pGI50 (converted)): 1.74 µM
- CC50 (OVCAR-8; OVCAR-8, read-out: pLC50 (converted)): 45.7 µM
- TGI (OVCAR-8; OVCAR-8, read-out: pTGI): 12.3 µM
- GI50 (HCT-15; HCT-15, read-out: pGI50 (converted)): 23.4 µM
- CC50 (HCT-15; HCT-15, read-out: pLC50 (converted)): > 100 µM
- TGI (HCT-15; HCT-15, read-out: pTGI): > 100 µM
- GI50 (RXF 393; RXF 393, read-out: pGI50 (converted)): 1.62 µM
- CC50 (RXF 393; RXF 393, read-out: pLC50 (converted)): 26.3 µM
- TGI (RXF 393; RXF 393, read-out: pTGI): 4.9 µM
- GI50 (LOX IMVI; read-out: pGI50 (converted)): 1.7 µM
- CC50 (LOX IMVI; read-out: pLC50 (converted)): 49 µM
- TGI (LOX IMVI; read-out: pTGI): 5.25 µM
- GI50 (786-0; 786-0, read-out: pGI50 (converted)): 3.47 µM
- CC50 (786-0; 786-0, read-out: pLC50 (converted)): > 100 µM
- TGI (786-0; 786-0, read-out: pTGI): 18.2 µM
- GI50 (NCI-H522; NCI-H522, read-out: pGI50 (converted)): 0.123 µM
- CC50 (NCI-H522; NCI-H522, read-out: pLC50 (converted)): 3.31 µM
- TGI (NCI-H522; NCI-H522, read-out: pTGI): 0.692 µM
- GI50 (IGROV-1; IGROV-1, read-out: pGI50 (converted)): 0.363 µM
- CC50 (IGROV-1; IGROV-1, read-out: pLC50 (converted)): > 100 µM
- TGI (IGROV-1; IGROV-1, read-out: pTGI): 5.01 µM
- GI50 (HOP-62; HOP-62, read-out: pGI50 (converted)): 0.525 µM
- CC50 (HOP-62; HOP-62, read-out: pLC50 (converted)): 30.9 µM
- TGI (HOP-62; HOP-62, read-out: pTGI): 5.62 µM
- GI50 (MDA-MB-231; MDA-MB-231, read-out: pGI50 (converted)): 1.1 µM
- CC50 (MDA-MB-231; MDA-MB-231, read-out: pLC50 (converted)): 52.5 µM
- TGI (MDA-MB-231; MDA-MB-231, read-out: pTGI): 9.77 µM
- GI50 (T47D; read-out: pGI50 (converted)): 0.234 µM
- CC50 (T47D; read-out: pLC50 (converted)): > 100 µM
- TGI (T47D; read-out: pTGI): 2.34 µM
- GI50 (MDA-MB-435; MDA-MB-435, read-out: pGI50 (converted)): 2.95 µM
- CC50 (MDA-MB-435; MDA-MB-435, read-out: pLC50 (converted)): 42.7 µM
- TGI (MDA-MB-435; MDA-MB-435, read-out: pTGI): 10.5 µM
- GI50 (UACC-257; UACC-257, read-out: pGI50 (converted)): 5.37 µM
- CC50 (UACC-257; UACC-257, read-out: pLC50 (converted)): 81.3 µM
- TGI (UACC-257; UACC-257, read-out: pTGI): 24 µM
- GI50 (HOP-92; HOP-92, read-out: pGI50 (converted)): 1.15 µM
- CC50 (HOP-92; HOP-92, read-out: pLC50 (converted)): > 100 µM
- TGI (HOP-92; HOP-92, read-out: pTGI): 6.92 µM
- GI50 (TK-10; TK-10, read-out: pGI50 (converted)): 3.09 µM
- CC50 (TK-10; TK-10, read-out: pLC50 (converted)): > 100 µM
- TGI (TK-10; TK-10, read-out: pTGI): 14.5 µM
- GI50 (NCI-H23; NCI-H23, read-out: pGI50 (converted)): 0.0589 µM
- CC50 (NCI-H23; NCI-H23, read-out: pLC50 (converted)): 10.2 µM
- TGI (NCI-H23; NCI-H23, read-out: pTGI): 0.646 µM
- GI50 (SNB-75; SNB-75, read-out: pGI50 (converted)): 1.38 µM
- CC50 (SNB-75; SNB-75, read-out: pLC50 (converted)): 24.5 µM
- TGI (SNB-75; SNB-75, read-out: pTGI): 5.37 µM
- GI50 (HL-60(TB); HL-60, read-out: pGI50 (converted)): 2.19 µM
- CC50 (HL-60(TB); HL-60, read-out: pLC50 (converted)): > 100 µM
- TGI (HL-60(TB); HL-60, read-out: pTGI): > 100 µM
- GI50 (K562; K562, read-out: pGI50 (converted)): 0.295 µM
- CC50 (K562; K562, read-out: pLC50 (converted)): > 100 µM
- IC50 (Vero): 10 µM

Reference: ChEMBL document CHEMBL1287680, “C-11 diamino cryptolepine derivatives NSC748392, NSC748393, and NSC748394: anticancer profile and G-quadruplex stabilization” (Bioorg Med Chem Lett, 2010)
